Laboratory results reported in ChEMBL document CHEMBL3885861, “Open TG-GATES”.

Species on record: Rattus norvegicus
Test: Open TG-GATES - Regimen: Single
Format: toxicity, organism-based, Sprague-Dawley
Parameters: regimen Single, gender Male, age 6 weeks
Details: in vivo, po, route gavage; for APTT / Bas / Eos / Fbg / Hb / Ht / Lym / MCH / MCHC / MCV / Mono / Neu / PT / Plat / Ret / WBC: tissue Blood; for KIDNEY_L / KIDNEY_R / KIDNEY_TOTAL: tissue Kidney; for LIVER: tissue Liver; for ALP / ALT / AST / BUN / CRE / Ca / DBIL / GLC / IP / K / LDH / Na / PL / RALB / TBIL / TC / TG / TP / gamma-GTP: tissue Plasma
[1] = 30 mg/kg, 3 h, dose level Middle
[2] = 30 mg/kg, 6 h, dose level Middle
[3] = 30 mg/kg, 9 h, dose level Middle
[4] = 30 mg/kg, 24 h, dose level Middle
[5] = 100 mg/kg, 3 h, dose level High
[6] = 100 mg/kg, 6 h, dose level High
[7] = 100 mg/kg, 9 h, dose level High
[8] = 100 mg/kg, 24 h, dose level High

## CN(C)CCCN1c2ccccc2CCc2ccc(Cl)cc21 [CLOMIPRAMINE]
[1]
  APTT: 16.4 s
  Bas: 0.2%
  Eos: 0.6%
  Fbg: 254 mg/dL
  Hb: 14.2 g/dL
  Ht: 43.6%
  Lym: 71.2%
  MCH: 21 pg
  MCHC: 32.6%
  MCV: 64.5 fL
  Mono: 2.8%
  Neu: 24%
  PT: 13.6 s
  Plat: 115.5 x10_4/uL
  Ret: 7.9%
  WBC: 95.4 x10_2/uL
  KIDNEY_L: 1 g
  KIDNEY_R: 1 g
  KIDNEY_TOTAL: 1.9 g
  LIVER: 9.7 g
  ALP: 1675.2 IU/L
  ALT: 38.4 IU/L
  AST: 77.8 IU/L
  BUN: 9.8 mg/dL
  CRE: 0.2 mg/dL
  Ca: 10.8 mg/dL
  DBIL: 0.016 mg/dL
  GLC: 187.8 mg/dL
  IP: 9.6 mg/dL
  K: 4 meq/L
  LDH: 96 IU/L
  Na: 141 meq/L
  PL: 145.4 mg/dL
  RALB: 2.5 g/dL
  TBIL: 0.062 mg/dL
  TC: 75.2 mg/dL
  TG: 78.8 mg/dL
  TP: 5.2 g/dL
  gamma-GTP: 1 IU/L
[2]
  TERMINAL_BW: 214.2 g
  APTT: 15.9 s
  Bas: 0.2%
  Eos: 0.8%
  Fbg: 241.2 mg/dL
  Hb: 14.1 g/dL
  Ht: 43.9%
  Lym: 78.2%
  MCH: 20.2 pg
  MCHC: 32.2%
  MCV: 62.8 fL
  Mono: 2.6%
  Neu: 17.2%
  PT: 13.7 s
  Plat: 114.1 x10_4/uL
  Ret: 7.6%
  WBC: 82.3 x10_2/uL
  KIDNEY_L: 1 g
  KIDNEY_R: 1 g
  KIDNEY_TOTAL: 2 g
  LIVER: 9.2 g
  ALP: 1672.6 IU/L
  ALT: 39.2 IU/L
  AST: 73.8 IU/L
  BUN: 7.2 mg/dL
  CRE: 0.2 mg/dL
  DBIL: 0.02 mg/dL
  GLC: 186.4 mg/dL
  IP: 9.9 mg/dL
  K: 4.2 meq/L
  LDH: 75.4 IU/L
  Na: 141.4 meq/L
  PL: 134.6 mg/dL
  RALB: 2.5 g/dL
  TBIL: 0.068 mg/dL
  TC: 74.4 mg/dL
  TG: 55.8 mg/dL
  TP: 5.3 g/dL
  gamma-GTP: 1.2 IU/L
[3]
  TERMINAL_BW: 211.3 g
  APTT: 17.1 s
  Bas: 0%
  Eos: 1.2%
  Fbg: 273.6 mg/dL
  Hb: 13.9 g/dL
  Ht: 42.6%
  Lym: 77.8%
  MCH: 20.4 pg
  MCHC: 32.6%
  MCV: 62.6 fL
  Mono: 2.2%
  Neu: 17.8%
  PT: 13.8 s
  Plat: 124.6 x10_4/uL
  Ret: 7.7%
  WBC: 83.2 x10_2/uL
  KIDNEY_L: 1 g
  KIDNEY_R: 0.9 g
  KIDNEY_TOTAL: 1.9 g
  LIVER: 8.5 g
  ALP: 1468.8 IU/L
  ALT: 36.2 IU/L
  AST: 71.8 IU/L
  BUN: 7.4 mg/dL
  CRE: 0.2 mg/dL
  Ca: 10.5 mg/dL
  DBIL: 0.024 mg/dL
  GLC: 174 mg/dL
  IP: 10.5 mg/dL
  K: 4.1 meq/L
  LDH: 86.4 IU/L
  Na: 140.6 meq/L
  PL: 143 mg/dL
  RALB: 2.6 g/dL
  TBIL: 0.076 mg/dL
  TC: 83.4 mg/dL
  TG: 34.2 mg/dL
  TP: 5.4 g/dL
  gamma-GTP: 1 IU/L
[4]
  TERMINAL_BW: 231.8 g
  APTT: 16.9 s
  Bas: 0%
  Eos: 0.6%
  Fbg: 247.6 mg/dL
  Ht: 41.2%
  Lym: 81.6%
  MCH: 20.6 pg
  MCHC: 32.3%
  MCV: 63.9 fL
  Mono: 2.6%
  Neu: 14%
  PT: 13.8 s
  Plat: 116.6 x10_4/uL
  Ret: 7.1%
  WBC: 83.8 x10_2/uL
  KIDNEY_L: 1 g
  KIDNEY_R: 1 g
  KIDNEY_TOTAL: 2.1 g
  LIVER: 10.5 g
  ALP: 2253 IU/L
  ALT: 44.2 IU/L
  AST: 76.8 IU/L
  BUN: 13.2 mg/dL
  CRE: 0.2 mg/dL
  Ca: 10.9 mg/dL
  DBIL: 0.028 mg/dL
  GLC: 179 mg/dL
  IP: 8 mg/dL
  K: 4.1 meq/L
  LDH: 93.8 IU/L
  Na: 141.4 meq/L
  PL: 159 mg/dL
  RALB: 2.6 g/dL
  TBIL: 0.062 mg/dL
  TC: 80.2 mg/dL
  TG: 115.2 mg/dL
  TP: 5.5 g/dL
  gamma-GTP: 1.2 IU/L
[5]
  TERMINAL_BW: 215.5 g
  APTT: 16.9 s
  Bas: 0%
  Eos: 0.8%
  Fbg: 257.8 mg/dL
  Hb: 14.1 g/dL
  Ht: 43.3%
  Lym: 77.8%
  MCH: 21.2 pg
  MCHC: 32.6%
  MCV: 64.9 fL
  Mono: 3.4%
  Neu: 17.2%
  PT: 13.5 s
  Plat: 125.6 x10_4/uL
  Ret: 8%
  WBC: 69.8 x10_2/uL
  KIDNEY_L: 1 g
  KIDNEY_R: 0.9 g
  KIDNEY_TOTAL: 1.9 g
  LIVER: 10.1 g
  ALP: 1835 IU/L
  ALT: 42.8 IU/L
  AST: 76.6 IU/L
  BUN: 7.4 mg/dL
  CRE: 0.1 mg/dL
  Ca: 10.5 mg/dL
  DBIL: 0.036 mg/dL
  GLC: 188.8 mg/dL
  IP: 9.6 mg/dL
  K: 3.9 meq/L
  LDH: 116.6 IU/L
  Na: 142.2 meq/L
  PL: 147 mg/dL
  RALB: 2.5 g/dL
  TBIL: 0.068 mg/dL
  TC: 73.8 mg/dL
  TG: 85.4 mg/dL
  TP: 5.3 g/dL
  gamma-GTP: 1 IU/L
[6]
  TERMINAL_BW: 210.3 g
  APTT: 17.8 s
  Bas: 0%
  Eos: 1%
  Fbg: 276 mg/dL
  Hb: 14.2 g/dL
  Ht: 44%
  Lym: 75.6%
  MCH: 21.3 pg
  MCHC: 32.2%
  MCV: 66.2 fL
  Mono: 2.8%
  Neu: 20%
  PT: 13.9 s
  Plat: 125.1 x10_4/uL
  Ret: 8.2%
  WBC: 69.9 x10_2/uL
  KIDNEY_L: 1 g
  KIDNEY_R: 1 g
  KIDNEY_TOTAL: 2 g
  LIVER: 9.2 g
  ALP: 1949.8 IU/L
  ALT: 40.6 IU/L
  AST: 76.2 IU/L
  BUN: 6.8 mg/dL
  CRE: 0.1 mg/dL
  Ca: 10.4 mg/dL
  DBIL: 0.042 mg/dL
  GLC: 187.4 mg/dL
  IP: 9.7 mg/dL
  K: 4.1 meq/L
  LDH: 103.8 IU/L
  Na: 142.8 meq/L
  PL: 134.6 mg/dL
  RALB: 2.5 g/dL
  TBIL: 0.064 mg/dL
  TC: 71.4 mg/dL
  TG: 53 mg/dL
  TP: 5.2 g/dL
  gamma-GTP: 1 IU/L
[7]
  TERMINAL_BW: 208.4 g
  APTT: 16.6 s
  Bas: 0%
  Eos: 1%
  Fbg: 270.4 mg/dL
  Hb: 14.1 g/dL
  Ht: 43.6%
  Lym: 71.2%
  MCH: 21 pg
  MCHC: 32.3%
  MCV: 65.1 fL
  Mono: 2%
  Neu: 25.2%
  PT: 13.9 s
  Plat: 144.8 x10_4/uL
  Ret: 8.1%
  WBC: 72.8 x10_2/uL
  KIDNEY_L: 1 g
  KIDNEY_R: 1 g
  KIDNEY_TOTAL: 2 g
  LIVER: 9 g
  ALP: 1702 IU/L
  ALT: 32.4 IU/L
  AST: 71.2 IU/L
  BUN: 6.4 mg/dL
  CRE: 0.1 mg/dL
  Ca: 10.2 mg/dL
  DBIL: 0.04 mg/dL
  GLC: 194.6 mg/dL
  IP: 9.8 mg/dL
  K: 3.7 meq/L
  LDH: 91 IU/L
  Na: 142.6 meq/L
  PL: 137.4 mg/dL
  RALB: 2.5 g/dL
  TBIL: 0.064 mg/dL
  TC: 72.8 mg/dL
  TG: 39 mg/dL
  TP: 5.2 g/dL
  gamma-GTP: 1 IU/L
[8]
  TERMINAL_BW: 217.7 g
  APTT: 19.3 s
  Bas: 0.2%
  Eos: 1%
  Fbg: 278.8 mg/dL
  Hb: 14.1 g/dL
  Ht: 43.4%
  Lym: 78.2%
  MCH: 20.6 pg
  MCHC: 32.5%
  MCV: 63.5 fL
  Mono: 2.6%
  Neu: 17.4%
  PT: 13.5 s
  Plat: 144.2 x10_4/uL
  Ret: 7.4%
  WBC: 91.7 x10_2/uL
  KIDNEY_L: 1 g
  KIDNEY_R: 1 g
  KIDNEY_TOTAL: 2 g
  LIVER: 9.6 g
  ALP: 1855 IU/L
  ALT: 43 IU/L
  AST: 69.8 IU/L
  BUN: 15.4 mg/dL
  CRE: 0.2 mg/dL
  Ca: 10.8 mg/dL
  DBIL: 0.046 mg/dL
  GLC: 180.6 mg/dL
  IP: 8.3 mg/dL
  K: 4 meq/L
  LDH: 92 IU/L
  Na: 141.8 meq/L
  PL: 168.4 mg/dL
  RALB: 2.7 g/dL
  TBIL: 0.056 mg/dL
  TC: 98.2 mg/dL
  TG: 96.2 mg/dL
  TP: 5.7 g/dL
  gamma-GTP: 1 IU/L
